{
  "source": "PubChem BioAssay AID1919014",
  "about": "(Molecular Pharmacology Branch, DTP, NCI, 2023)",
  "test_system": "NCI-H1341 complex spheroids, percent test/control",
  "test": "Anticancer human tumor NCI-H1341 cell line growth inhibition [AhR];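 further: spheroids exposed to agents for seven days before readout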",
  "conditions": "for pIC50: curve of first compound; for viability, T/C: stronger effect = lower value",
  "in_short": "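Spheroids combined tumor cells with HUVEC endothelial cells and human MSCs as stroma. AhR antagonists were paired with standard or investigational drugs, each dosed in half-log steps down from near clinical Cmax, or from 10 microM where Cmax was unknown.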",
  "note": "pIC50: −log10 of the molar value.",
  "data": [
    {"smiles": "O=C(C=Cn1cnc(-c2cc(C(F)(F)F)cc(C(F)(F)F)c2)n1)NNc1cnccn1", "note": "+ CC(CO)NC(=O)c1cc(-c2ccc(Cl)cc2)nn(-c2cnn(C)c2)c1=O", "values": [
      {"measurement": "pIC50", "setting": "second compound 0.1 µM", "value": 7.33},
      {"measurement": "pIC50", "setting": "second compound 0.316 µM", "value": 7.41},
      {"measurement": "pIC50", "setting": "second compound 1 µM", "value": 7.27},
      {"measurement": "pIC50", "setting": "second compound 3.16 µM", "value": 7.41},
      {"measurement": "pIC50", "setting": "second compound 10 µM", "value": 7.49},
      {"measurement": "viability, T/C", "setting": "second compound 0.1 µM, first compound 0.00949 µM", "value": 70.1, "unit": "%"},
      {"measurement": "viability, T/C", "setting": "second compound 0.1 µM, first compound 0.03 µM", "value": 66, "unit": "%"},
      {"measurement": "viability, T/C", "setting": "second compound 0.1 µM, first compound 0.0949 µM", "value": 25.8, "unit": "%"},
      {"measurement": "viability, T/C", "setting": "second compound 0.1 µM, first compound 0.3 µM", "value": 8.14, "unit": "%"},
      {"measurement": "viability, T/C", "setting": "second compound 0.1 µM, first compound 0.949 µM", "value": 7.31, "unit": "%"},
      {"measurement": "viability, T/C", "setting": "second compound 0.1 µM, first compound 3 µM", "value": 3.24, "unit": "%"},
      {"measurement": "viability, T/C", "setting": "second compound 0.316 µM, first compound 0.00949 µM", "value": 81.5, "unit": "%"},
      {"measurement": "viability, T/C", "setting": "second compound 0.316 µM, first compound 0.03 µM", "value": 56.4, "unit": "%"},
      {"measurement": "viability, T/C", "setting": "second compound 0.316 µM, first compound 0.0949 µM", "value": 26.9, "unit": "%"},
      {"measurement": "viability, T/C", "setting": "second compound 0.316 µM, first compound 0.3 µM", "value": 8.82, "unit": "%"},
      {"measurement": "viability, T/C", "setting": "second compound 0.316 µM, first compound 0.949 µM", "value": 4.72, "unit": "%"},
      {"measurement": "viability, T/C", "setting": "second compound 0.316 µM, first compound 3 µM", "value": 3.56, "unit": "%"},
      {"measurement": "viability, T/C", "setting": "second compound 1 µM, first compound 0.00949 µM", "value": 72.9, "unit": "%"},
      {"measurement": "viability, T/C", "setting": "second compound 1 µM, first compound 0.03 µM", "value": 76.5, "unit": "%"},
      {"measurement": "viability, T/C", "setting": "second compound 1 µM, first compound 0.0949 µM", "value": 25.3, "unit": "%"},
      {"measurement": "viability, T/C", "setting": "second compound 1 µM, first compound 0.3 µM", "value": 7.32, "unit": "%"},
      {"measurement": "viability, T/C", "setting": "second compound 1 µM, first compound 0.949 µM", "value": 5.36, "unit": "%"},
      {"measurement": "viability, T/C", "setting": "second compound 1 µM, first compound 3 µM", "value": 3.2, "unit": "%"},
      {"measurement": "viability, T/C", "setting": "second compound 3.16 µM, first compound 0.00949 µM", "value": 70.9, "unit": "%"},
      {"measurement": "viability, T/C", "setting": "second compound 3.16 µM, first compound 0.03 µM", "value": 56.6, "unit": "%"},
      {"measurement": "viability, T/C", "setting": "second compound 3.16 µM, first compound 0.0949 µM", "value": 27.3, "unit": "%"},
      {"measurement": "viability, T/C", "setting": "second compound 3.16 µM, first compound 0.3 µM", "value": 7.55, "unit": "%"},
      {"measurement": "viability, T/C", "setting": "second compound 3.16 µM, first compound 0.949 µM", "value": 4.07, "unit": "%"},
      {"measurement": "viability, T/C", "setting": "second compound 3.16 µM, first compound 3 µM", "value": 4.94, "unit": "%"},
      {"measurement": "viability, T/C", "setting": "second compound 10 µM, first compound 0.00949 µM", "value": 62.8, "unit": "%"},
      {"measurement": "viability, T/C", "setting": "second compound 10 µM, first compound 0.03 µM", "value": 51, "unit": "%"},
      {"measurement": "viability, T/C", "setting": "second compound 10 µM, first compound 0.0949 µM", "value": 27.2, "unit": "%"},
      {"measurement": "viability, T/C", "setting": "second compound 10 µM, first compound 0.3 µM", "value": 8.24, "unit": "%"},
      {"measurement": "viability, T/C", "setting": "second compound 10 µM, first compound 0.949 µM", "value": 5.11, "unit": "%"},
      {"measurement": "viability, T/C", "setting": "second compound 10 µM, first compound 3 µM", "value": 4.13, "unit": "%"}
    ]}
  ]
}
